In US5874235A, “Screening assays for cancer chemopreventative agents” (The Johns Hopkins University, priority 1997, dated 1999):
Where two headings read alike, the source gives them in different places.

Experiments:
Type in all cases: cell-based, human
[1] = system: HCT116 cells; assay: Arachidonic acid levels, release of 3H-AA into the media; conditions: for fold induction at 50 µM: 50 μM SUS, read-out: arachidonic acid levels relative to control; for increase in arachidonic acid: apoptosis-inducing doses of SUS
Description: FIGS. 4A, 4B, 4C, 4D, 4E and 4F. The role of arachidonic acid in NSAID-mediated apoptosis. […] HCT116 and SW480 cells were treated with the indicated concentrations of SUS or INDO. Arachidonic acid (AA) levels were determined by measuring release of ^3 H-AA into the media as previously described (18). Data are indicated as the mean of three replicates with the error bars corresponding to the standard deviation. In addition, the nature of the released radiolabeled material was evaluated by thin layer chromatography as previously described (28). […] HCT116 and SW480 cells were incubated with ^3 H-choline chloride (0.5 mCi ml^-1, 80 Ci mmol^-1, New England Nuclear) for 48 hours. After labeling, cells were washed with HBSS (Gibco) and treated with SUS or INDO for the indicated times. Sphingomyelin measurements were performed using the bacterial sphingomyelinase method as previously described (18). Sphingomyelin levels at each time point are plotted as a percentage of that in untreated control cells. For each point, the mean of at least two independent experiments is presented with the error bars corresponding to the standard deviations. […] SW480 cells were treated with 200 μM arachidonic acid (AA), SUS (SUS) or behenic acid as a control fatty acid (FA) as indicated. […] SW480 cells were treated with suboptimal doses (100 μM) of arachidonic acid (AA), SUS (SUS), or both (AA+SUS) as indicated. After 48 hours of treatment, apoptosis and ceramide increases were assessed as described for FIGS. 1 and 3, respectively. Ceramide increases (left axis) were expressed as fold increases relative to untreated cells. Apoptosis (right axis) was expressed as percent apoptotic cells minus percent apoptotic cells in untreated cells (5.6%+/-2.4). Data are indicated as the mean of duplicates with the error bars corresponding to the standard deviation.
Arachidonic acid is known to stimulate neutral sphingomyelinase (18), which catalyzes the conversion of sphingomyelin to ceramide. We therefore considered the possibility that inhibition of COX activity might lead to increases in arachidonic acid, the substrate for COX. To test this hypothesis, we first determined whether SUS stimulated arachidonic acid accumulation. In both SW480 and HCT 116 cells, apoptosis-inducing doses of SUS increased arachidonic acid by 2 to 3 fold at 24 hours and by approximately 5 fold at 48 hours (FIGS. 4A and 4B). The arachidonic acid increase following SUS treatment was as great as that following treatment with mellitin, a known activator of phospholipase A2. Arachidonic acid levels in HCT116 cells increased 3.5 fold one hour after treatment with 1 μM mellitin. Likewise, arachidonic acid levels increased 2.9 fold in SW480 cells one hour after mellitin treatment. Arachidonic acid (AA) levels were determined by measuring release of ^3 H-AA into the media as previously described (18). The nature of released radiolabeled material was evaluated by thin layer chromatography analysis as previously described (28).

[2] = system: SW480 cells; assay: Ceramide levels, E. coli diacylglycerol (DAG) kinase assay
Description: Cells were harvested and ceramide was quantified. The first lane of each panel corresponds to a ceramide standard (ceramide type III, Sigma). […] HCT116 and SW480 cells were treated with SUS or INDO as indicated. Ceramide levels were determined as described above. […] Control cells were treated with DMSO vehicle only. Cells were harvested at the indicated times following treatment and ceramide levels were determined as described above. The data are plotted as the mean of at least two experiments with the error bars corresponding to the standard deviation.
Ceramide levels were measured using the Escherichia coli diacylglycerol (DAG) kinase assay as previously described (30) with the following modifications. After the initial lipid extraction, phases were broken by adding 2 ml chloroform and 2 ml 1M NaCl and lipids were washed with 1M NaCl prior to drying under nitrogen (32, 33). After solubilization, samples were sonicated for 15 seconds. The DAG reaction was performed for 30 minutes at 25° C. in a 100 μl reaction volume with 3.5 μg DAG kinase (Calbiochem) and […] γ^32 P-ATP (Dupont NEN, 6000 Ci/mmol). After extraction of the labeled lipids, the lower chloroform phase was washed with 1% HCl prior to drying under nitrogen. The solvent mixture for thin layer chromatography was chloroform:acetone:methanol:acetic acid:water (10:4:3:2:1). Samples were quantitated using a Phosphorimager (Molecular Dynamics).

[3] = system: neutral sphingomyelinase in HCT116 cell lysates; assay: Neutral sphingomyelinase activity in lysates of treated cells (14C-sphingomyelin hydrolysis); conditions: for neutral sphingomyelinase activity relative to untreated controls: 200 μM SUS
Description: (§1) To test whether the increased ceramide was associated with evidence of augmented sphingomyelinase activity, we measured total sphingomyelin levels after SUS treatment. […] We also measured neutral sphingomyelinase activity in lysates from the treated cells and no differences were found. Neutral sphingomyelinase activity was assayed as described (18). After cell lysis, protein concentrations were determined using the Bradford method (Bio-Rad) and […] cellular protein was used in each assay. Neutral sphingomyelinase activity was determined by measuring the rate of hydrolysis of ^14 C-labelled sphingomyelin (Amersham). SW480 and HCT116 cell lines were treated with SUS (50, 200, and 600 μM) for 6 to 24 hours.

[4] = system: neutral sphingomyelinase in SW480 cell lysates; assay: as above; conditions: SUS 50, 200 and 600 μM, 6 to 24 hours
Description: as §1

CSc1ccc(/C=C2/C(C)=C(CC(=O)O)c3cc(F)ccc32)cc1 [SUS, sulindac sulfide]
fold induction at 50 µM ([1]; Homo sapiens, HCT-116, 8 hours): 0.9
fold induction at 50 µM ([1]; Homo sapiens, HCT-116, 16 hours): 1.05
fold induction at 50 µM ([1]; Homo sapiens, HCT-116, 24 hours): 1.14
fold induction at 200 µM ([1]; Homo sapiens, HCT-116, 200 μM SUS, 16 hours, read-out: increase in arachidonic acid): 5.1
increase in arachidonic acid ([1]; 24 hours): 2 to 3 fold
increase in arachidonic acid ([1]; 48 hours): approximately 5 fold
ceramide levels early after treatment ([2]; 8 hours post-treatment, before morphologic features of apoptosis): increased to substantial levels
fold induction at 200 µM ([2]; Homo sapiens, SW480, SUS 200 μM, with or without 10 μM CHX, 48 hours, read-out: fold increase in ceramide levels relative to vehicle controls): 9.2 ± 0.1
magnitude of the ceramide increase ([2]; SUS): 10 fold
ceramide induction ([2]; SUS 50 μM): did not induce ceramide
ceramide induction ([2]; SUS 100 μM): not at 100 μM
ceramide induction ([2]; SUS 200 μM): induced both ceramide and cell death
time of maximum ceramide induction ([2]; SUS 200 μM): 24 to 48 h
effect on ceramide levels ([2]; suboptimal doses, 100 μM each, separately or together, 48 hours): little effect on ceramide levels
neutral sphingomyelinase activity relative to untreated controls ([3]; 6 hours): 90%
neutral sphingomyelinase activity relative to untreated controls ([3]; 16 hours): 92%
neutral sphingomyelinase activity in cell lysates ([3]; SUS 50, 200 and 600 μM, 6 to 24 hours): None of these treatments enhanced neutral sphingomyelinase activity
neutral sphingomyelinase activity in cell lysates [4]: None of these treatments enhanced neutral sphingomyelinase activity
